Assay results taken from PubChem BioAssay AID248 (DTP/NCI, 2004).
Where “and” joins values, the source holds several entries; their conditions need not be identical. Equal entries are not always repeated. Inconclusive results and toxic doses are left out.

Test system: L1210 leukemia ip in BDF1 mice, survival T/C
Test: NCI In Vivo Anticancer Drug Screen. Data for tumor model L1210 Leukemia (intraperitoneal) in B6D2F1 (BDF1) mice
Details: endpoint: mean survival time, higher = longer survival
Outline: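 Transplantable tumor model; survival measured in treated vs vehicle control mice. Value = treated/control.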

[1] = dose: 50.0 mg/kg/injection, schedule: Q01DX009 (ip), vehicle: saline
[2] = dose: 100.0 mg/kg/injection, schedule: Q01DX001 (ip), vehicle: carboxymethylcellulose (CMC)
[3] = dose: 100.0 mg/kg/injection, schedule: Q01DX009 (ip), vehicle: saline
[4] = dose: 100.0 mg/kg/injection, schedule: Q04DX003 (ip), vehicle: saline
[5] = dose: 200.0 mg/kg/injection, schedule: Q01DX001 (ip), vehicle: carboxymethylcellulose (CMC)
[6] = dose: 200.0 mg/kg/injection, schedule: Q04DX003 (ip), vehicle: saline
[7] = dose: 400.0 mg/kg/injection, schedule: Q01DX001 (ip), vehicle: carboxymethylcellulose (CMC)
[8] = dose: 50.0 mg/kg/injection, schedule: Q01DX009 (ip), vehicle: saline with Tween-80
[9] = dose: 100.0 mg/kg/injection, schedule: Q01DX009 (ip), vehicle: saline with Tween-80
[10] = dose: 200.0 mg/kg/injection, schedule: Q01DX009 (ip), vehicle: saline with Tween-80
[11] = dose: 100.0 mg/kg/injection, schedule: Q04DX003 (ip), vehicle: Klucel (hydroxypropylcellulose) (HPC)
[12] = dose: 100.0 mg/kg/injection, schedule: Q04DX003 (ip), vehicle: saline with Tween-80
[13] = dose: 200.0 mg/kg/injection, schedule: Q04DX003 (ip), vehicle: saline with Tween-80
[14] = dose: 400.0 mg/kg/injection, schedule: Q04DX003 (ip), vehicle: saline with Tween-80
[15] = dose: 100.0 mg/kg/injection, schedule: Q01DX001 (ip), vehicle: Klucel (hydroxypropylcellulose) (HPC)
[16] = dose: 200.0 mg/kg/injection, schedule: Q01DX001 (ip), vehicle: Klucel (hydroxypropylcellulose) (HPC)
[17] = dose: 400.0 mg/kg/injection, schedule: Q01DX001 (ip), vehicle: Klucel (hydroxypropylcellulose) (HPC)

For `c1cc2c(c3c1CCCC3)CCCC2`, the T/C (dose: 50.0 mg/kg/injection, schedule: Q01DX001 (ip), vehicle: carboxymethylcellulose (CMC)) was 92 % of control, the T/C [1] was 101 % of control and the T/C [2] was 97 % of control. The T/C [3] was 94 % of control, the T/C [4] was 91 % of control and the T/C [5] was 91 % of control. The T/C [6] was 101 % of control and the T/C [7] was 94 % of control.
With `COc1ccc2ccc(OC)c(C=O)c2c1` the T/C (dose: 75.0 mg/kg/injection, schedule: Q01DX009 (ip), vehicle: Klucel (hydroxypropylcellulose) (HPC)) was 98 % of control, the T/C (dose: 150.0 mg/kg/injection, schedule: Q01DX009 (ip), vehicle: Klucel (hydroxypropylcellulose) (HPC)) was 101 % of control and the T/C (dose: 300.0 mg/kg/injection, schedule: Q01DX009 (ip), vehicle: Klucel (hydroxypropylcellulose) (HPC)) was 98 % of control.
`CC[C@@H]1C[C@@H]2CN3CCc4c([nH]c5ccc(OC)cc45)C(C(=O)OC)(C2)C13` was tested, and the T/C (dose: 50.0 mg/kg/injection, schedule: Q01DX009 (ip), vehicle: Klucel (hydroxypropylcellulose) (HPC)) was 89 % of control, the T/C (dose: 100.0 mg/kg/injection, schedule: Q01DX009 (ip), vehicle: Klucel (hydroxypropylcellulose) (HPC)) was 94 % of control and the T/C (dose: 200.0 mg/kg/injection, schedule: Q01DX009 (ip), vehicle: Klucel (hydroxypropylcellulose) (HPC)) was 89 % of control.
With `O=C1/C(=C\c2ccccc2)N2CCC1CC2` the T/C (dose: 100.0 mg/kg/injection, schedule: Q04DX002 (ip), vehicle: saline with Tween-80) was 87 % of control, the T/C [4] was 103 % of control and the T/C (dose: 200.0 mg/kg/injection, schedule: Q04DX002 (ip), vehicle: saline with Tween-80) was 91 % of control. The T/C [6] was 108 % of control, the T/C (dose: 400.0 mg/kg/injection, schedule: Q04DX002 (ip), vehicle: saline with Tween-80) was 87 % of control and the T/C (dose: 400.0 mg/kg/injection, schedule: Q04DX003 (ip), vehicle: saline) was 103 % of control.
`Cc1ccc([N+](=O)[O-])cc1NC(=O)SCCOC(=O)COc1ccc(Cl)cc1` was tested, and the T/C [8] was 97 % of control, the T/C [9] was 97 % of control and 106 % of control and the T/C [10] was 103 % of control.
In the case of `CCCCCCCCCCOCCCCCCCCCC`, the T/C [1] is reported as 92 % of control, the T/C [3] is reported as 92 % of control and the T/C (dose: 200.0 mg/kg/injection, schedule: Q01DX009 (ip), vehicle: saline) is reported as 89 % of control.
`Cn1ccccc1=O` was tested, and the T/C (dose: 100.0 mg/kg/injection, schedule: Q04DX002 (ip), vehicle: saline) was 104 % of control, the T/C (dose: 200.0 mg/kg/injection, schedule: Q04DX002 (ip), vehicle: saline) was 98 % of control and the T/C (dose: 400.0 mg/kg/injection, schedule: Q04DX002 (ip), vehicle: saline) was 104 % of control.
In the case of `[C-]1=CC2C=CC1C1[C-]=CC21.[Cl][Pd][Cl]` (centres undefined), the T/C (dose: 3.13 mg/kg/injection, schedule: Q01DX009 (ip), vehicle: saline with Tween-80) is reported as 103 % of control, the T/C (dose: 6.25 mg/kg/injection, schedule: Q01DX009 (ip), vehicle: saline with Tween-80) is reported as 98 % of control and the T/C (dose: 12.5 mg/kg/injection, schedule: Q01DX009 (ip), vehicle: saline with Tween-80) is reported as 100 % of control.
For `Nc1nc(CCl)cs1`, the T/C (dose: 25.0 mg/kg/injection, schedule: Q04DX003 (ip), vehicle: Klucel (hydroxypropylcellulose) (HPC)) was 103 % of control, the T/C (dose: 50.0 mg/kg/injection, schedule: Q04DX003 (ip), vehicle: Klucel (hydroxypropylcellulose) (HPC)) was 95 % of control and the T/C [11] was 98 % of control and 100 % of control.
For `Cc1c2ccncc2c(C)c2c1sc1ccccc12`, the T/C (dose: 5.0 mg/kg/injection, schedule: Q01DX009 (ip), vehicle: Klucel (hydroxypropylcellulose) (HPC)) was 106 % of control, the T/C (dose: 10.0 mg/kg/injection, schedule: Q01DX009 (ip), vehicle: Klucel (hydroxypropylcellulose) (HPC)) was 117 % of control and the T/C (dose: 20.0 mg/kg/injection, schedule: Q01DX009 (ip), vehicle: Klucel (hydroxypropylcellulose) (HPC)) was 124 % of control. The T/C (dose: 20.0 mg/kg/injection, schedule: Q01DX009 (ip), vehicle: other) was 113 % of control, the T/C (dose: 31.0 mg/kg/injection, schedule: Q01DX001 (ip), vehicle: other) was 105 % of control and the T/C (dose: 62.0 mg/kg/injection, schedule: Q01DX001 (ip), vehicle: other) was 111 % of control. For the same compound, the T/C (dose: 80.0 mg/kg/injection, schedule: Q01DX009 (ip), vehicle: other) was 121 % of control, the T/C (dose: 125.0 mg/kg/injection, schedule: Q01DX001 (ip), vehicle: other) was 121 % of control and the T/C (dose: 250.0 mg/kg/injection, schedule: Q01DX001 (oral), vehicle: other) was 112 % of control. The T/C (dose: 500.0 mg/kg/injection, schedule: Q01DX001 (ip), vehicle: other) was 187 % of control and the T/C (dose: 500.0 mg/kg/injection, schedule: Q01DX001 (oral), vehicle: other) was 112 % of control.
`O=c1[nH]c2cc(Br)ccc2c2ccccc12` was tested, and the T/C [2] was 95 % of control, the T/C [5] was 101 % of control and the T/C [7] was 94 % of control.
`CCCCC(CC)COC(C)=O` (centres undefined) was tested, and the T/C [9] was 94 % of control, the T/C [12] was 98 % of control and the T/C [10] was 102 % of control. The T/C [13] was 93 % of control, the T/C (dose: 400.0 mg/kg/injection, schedule: Q01DX009 (ip), vehicle: saline with Tween-80) was 91 % of control and the T/C [14] was 92 % of control.
With `CCC12CCCN3C(=O)CC(C(=O)CC1)C32` (centres undefined) the T/C [4] was 107 % of control.
With `Nc1ccn(C2OC(CO)C(O)C(O)C2N)c(=O)n1` (centres undefined) the T/C (dose: 100.0 mg/kg/injection, schedule: Q01DX001 (ip), vehicle: saline) was 97 % of control, the T/C (dose: 200.0 mg/kg/injection, schedule: Q01DX001 (ip), vehicle: saline) was 103 % of control and the T/C (dose: 400.0 mg/kg/injection, schedule: Q01DX001 (ip), vehicle: saline) was 100 % of control.
`C=C(Cl)COCC1CO1` (centres undefined) was tested, and the T/C (dose: 44.0 mg/kg/injection, schedule: Q01DX Z (ip), vehicle: saline) was 92 % of control, the T/C (dose: 66.0 mg/kg/injection, schedule: Q01DX Z (ip), vehicle: saline) was 110 % of control and the T/C (dose: 100.0 mg/kg/injection, schedule: Q01DX Z (ip), vehicle: saline) was 94 % of control.
`CN(C1=NS(=O)(=O)N=C(N(C)c2ccccc2)O1)c1ccccc1` was tested, and the T/C [11] was 102 % of control, the T/C (dose: 200.0 mg/kg/injection, schedule: Q04DX003 (ip), vehicle: Klucel (hydroxypropylcellulose) (HPC)) was 102 % of control and the T/C (dose: 400.0 mg/kg/injection, schedule: Q04DX003 (ip), vehicle: Klucel (hydroxypropylcellulose) (HPC)) was 98 % of control.
For `CCCCCCCCCCCCCCCCSCCCCCCCCCCCSCCCCCCCCCCCCCCCC`, the T/C [15] was 89 % of control, the T/C [16] was 94 % of control and the T/C [17] was 102 % of control.
For `O=C(NCc1ccccc1)C(Cc1ccccc1)(Cc1ccccc1)C(=O)NCc1ccccc1`, the T/C [2] was 92 % of control, the T/C [5] was 90 % of control and the T/C [7] was 92 % of control.
With `CNCCN(C)CCNC` the T/C [1] was 104 % of control, the T/C [3] was 101 % of control and the T/C [4] was 103 % of control. The T/C [6] was 96 % of control.
With `CC1(C)Oc2[nH]c(=O)n(-c3ccccc3)c(=O)c2C1c1ccc(Cl)cc1` (centres undefined) the T/C (dose: 12.5 mg/kg/injection, schedule: Q01DX001 (ip), vehicle: saline) was 94 % of control, the T/C (dose: 12.5 mg/kg/injection, schedule: Q04DX003 (ip), vehicle: acetone) was 103 % of control and the T/C (dose: 25.0 mg/kg/injection, schedule: Q01DX001 (ip), vehicle: saline) was 97 % of control. For the same compound, the T/C (dose: 25.0 mg/kg/injection, schedule: Q04DX003 (ip), vehicle: acetone) was 86 % of control, the T/C (dose: 35.0 mg/kg/injection, schedule: Q01DX009 (ip), vehicle: saline) was 94 % of control and the T/C (dose: 50.0 mg/kg/injection, schedule: Q01DX001 (ip), vehicle: saline) was 92 % of control. For the same compound, the T/C (dose: 55.0 mg/kg/injection, schedule: Q01DX009 (ip), vehicle: saline) was 96 % of control and the T/C (dose: 80.0 mg/kg/injection, schedule: Q01DX009 (ip), vehicle: saline) was 106 % of control.
`CCN(CCO)c1ccc(N=Nc2ccc([N+](=O)[O-])cc2)cc1` was tested, and the T/C [15] was 105 % of control, the T/C [16] was 96 % of control and the T/C [17] was 100 % of control.
In the case of `COc1ccc2c(c1)OC(C)(C)C(c1ccccc1)C2c1ccc(OCCN2CCCC2)cc1` (centres undefined), the T/C [12] is reported as 119 % of control, the T/C [13] is reported as 94 % of control and the T/C [14] is reported as 95 % of control.
For `O=C1OC(=O)c2c1cccc2[N+](=O)[O-]`, the T/C (dose: 25.0 mg/kg/injection, schedule: Q01DX009 (ip), vehicle: saline with Tween-80) was 97 % of control, the T/C [8] was 90 % of control and the T/C [9] was 94 % of control and 88 % of control.
In the case of `CC(C)CC(NC(=O)C(F)(F)F)C(=O)O` (centres undefined), the T/C [12] is reported as 97 % of control and the T/C [13] is reported as 90 % of control.
